Results as given in US7794712B2, “Production of mutant strain of Aspergillus fumigatus, method of assay for inhibiting siderophore biosynthesis and diagnostic method for detecting likely Aspergillus fumigatus infection” (priority 2004, dated 2010).
Several values for one entry are separate records, joined by “and”; a condition that tells them apart may be missing. Equal values may be shown once. Non-standard residues stand in square brackets, D forms with d. Residues, ends and D or L forms follow the SMILES beside them. ξ: configuration not given here. Orn(N5-OH,N5-Ac) = CC(=O)N(O)CCC[C@H](N)C(=O)O; ξOrn(N(OH)Ac) = CC(=O)N(O)CCCC(N)C(=O)O

How the values were obtained:
A. fumigatus ΔsidA = assay: Growth (dry weight) in supplemented GA medium, ΔsidA strain; assay type: cell-based, Aspergillus fumigatus; settings: for Restoration of growth of ΔsidA in the presence of human serum: 50 μM siderophore
Description: (§1) In this example the growth of various strains of A. fumigatus was monitored as follows. In a first experiment, A. fumigatus was inoculated into 5 ml volumes of YG medium or 5 ml of modified Grimm-Allen (GA) medium (1 g/L KHSO4, 3 g/L K2HPO4, 3 g/L (NH4)SO4, 20 g/L sucrose, 1 g/L citric acid, 2 mg/L thiamine, 20 μg/L CuSO4, 1 mg/L MnSO4, 5.5 mg/L ZnSO4, 810 mg/L MgSO4, pH 6.9) in 25 ml acid-washed flasks at a concentration of […]. GA medium was supplemented with […] FeCl3 where described. Human serum (male) was obtained from Sigma, stored frozen until use and added to media at a concentration of 10%. DesferriTAF and desferriferricrocin were purified from A. fumigatus cultures as described above and treated with 8-hydroxyquinoline to remove all bound iron. Siderophore solutions were filter-sterilized prior to addition to media.
(§2) In a second experiment, A. fumigatus was innoculated into 1 ml volumes of YM medium or 1 ml of the modified GA medium described above.
(§3) Alternatively, dry weights were measured by filtering the contents of each tube through pre-weighed, pre-dried Whatman #1 filters and rinsing thoroughly with distilled water. Filters were oven-dried and re-weighed.

A. fumigatus ATCC 13073 = assay: Growth of A. fumigatus in MEM made iron limiting with 2,2′-dipyridyl; assay type: cell-based, Aspergillus fumigatus; settings: MEM (5 ml) with 250 μM 2,2′-dipyridyl; holo-/apotransferrin 25 μM, FeCl3 50 μM
Description: The inventors have shown that holotransferrin but not apotransferrin supports the growth of A. fumigatus in iron-depleted medium. MEM was made iron limiting by the addition of the iron-chelator 2,2′-dipyridyl.

A. fumigatus ΔsidA^R = assay: Growth (dry weight) in supplemented GA medium, rescued strain ΔsidA^R; assay type: cell-based, Aspergillus fumigatus
Description: as §1, §2, §3

[1] = tested on: A. fumigatus wild type (ATCC 13073); assay: Growth (dry weight) in supplemented GA medium, parental / wild type strain; assay type: cell-based, Aspergillus fumigatus
Description: as §1, §2, §3

human holotransferrin = human holotransferrin (Homo sapiens, UniProt P02787); assay type: biochemical; settings: for Affinity of iron removal from holotransferrin: compared with ferrichrome; for Concentration able to remove some iron from holotransferrin / Concentration at which complete absence of holotransferrin was observed: holotransferrin 25 μM, 16 h, 37° C., pH 7.4
human holotransferrin, sequence (P02787 20-698): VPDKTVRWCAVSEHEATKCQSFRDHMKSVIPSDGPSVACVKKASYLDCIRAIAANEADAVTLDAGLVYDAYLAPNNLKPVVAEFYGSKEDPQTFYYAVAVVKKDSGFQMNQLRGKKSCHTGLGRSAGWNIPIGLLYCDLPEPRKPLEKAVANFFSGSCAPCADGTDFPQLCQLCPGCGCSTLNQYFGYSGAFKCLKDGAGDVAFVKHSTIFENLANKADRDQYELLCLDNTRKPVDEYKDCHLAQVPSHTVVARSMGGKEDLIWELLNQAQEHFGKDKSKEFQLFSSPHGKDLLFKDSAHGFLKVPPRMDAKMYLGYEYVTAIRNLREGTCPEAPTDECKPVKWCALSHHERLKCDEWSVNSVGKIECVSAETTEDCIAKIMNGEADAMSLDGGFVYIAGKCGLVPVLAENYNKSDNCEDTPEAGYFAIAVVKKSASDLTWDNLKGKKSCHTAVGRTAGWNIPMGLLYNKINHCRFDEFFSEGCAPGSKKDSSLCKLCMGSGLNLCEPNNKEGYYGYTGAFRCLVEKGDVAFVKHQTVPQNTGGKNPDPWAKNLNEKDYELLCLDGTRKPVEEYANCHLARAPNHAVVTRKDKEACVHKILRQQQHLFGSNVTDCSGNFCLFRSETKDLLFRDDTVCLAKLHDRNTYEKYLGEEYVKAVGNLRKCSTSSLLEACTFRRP
Description: Purified desferri-siderophores and commercially available ferrichrome were serially diluted to final concentrations of 2.5 mM, 250 μM, 25 μM, 2.5 μM and 250 nM (lanes 1-5, respectively). Siderophores were incubated with 12.5 μM human holo-Tf at 37 degrees for 16 hours. Iron saturation of transferrin was assessed by urea-PAGE (13).
Holotransferrin also was incubated with commercially available desferriferrichrome for comparison. The iron saturation of transferrin was monitored by urea-PAGE. Desferritriacetylfusarinine C, desferriferricrocin, and desferriferrichrome were diluted to concentrations ranging from 5 mM to 5 μM and incubated with holotransferrin (25 μM) in 50 mM Tris-150 mM NaCl-20 mM NaHCO3 (pH 7.4) buffer for 16 h at 37° C. The extent of iron saturation of transferrin at the end of the incubation period was determined by urea-PAGE.

A. fumigatus 13073 = assay: Siderophore secretion inhibitor assay (A440 after FeCl3 addition); assay type: cell-based, Aspergillus fumigatus; settings: 3 days
Description: In this example 96-well sterile polystyrene filter plates as described above with white Duropore membranes at the base of the plate (Millipore) were used. The plates include a thick plastic layer under the wells, which has a one-way valve function that directs fluid into a receiving 96-well plate when the filter plate is subjected to a vacuum manifold or a centrifugal force. This layer can be peeled off if the membranes are to be sampled (punched) later.
Cultures were set up in the filter plates, with controls and inhibitors to be tested. After inclubation, culture fluid was pulled into a 96-well receiver plate, using the Beckman centrifuge and a JS 5.3 rotor designed to take 96-well plates. FeCl3 was added to the receiver plates, and A430 (general siderophores) or A440 (max for TAF) was read. Growth was scored in the plate by reading A600.
To test this method, different antibiotics were used to show inhibition of siderophore production by A. fumigatus 13073, as no inhibitors for the SidA gene product are currently known. Suitable ranges of concentrations of amphotericin B (fungizone), hygromycin, and nystatin were calculated based on the literature. Spores were harvested from A. fumigatus 13073 into PBS Tween, then washed once with PBS and counted. They were then diluted into Neilands' medium (without citrate) to give solutions of 2×10^5 and 2×10^6/ml. 100 μl of 2× spores and 100 μl of 2× antibiotics to yield a volume of 200 μl of Neilands' medium in each well, with the desired final concentrations of spores, 10^5 or 10^6/ml.
Antibiotics were prepared as follows. Amphotericin B came as a liquid solution, 250 µg/ml. […] Therefore 0, 0.125, 0.25, 0.5, 1 and […] final concentration was used. Nystatin was stored it in ˜1 mg dry aliquots at −20 C, and was prepared at a concentration of 2 mg/ml in DMSO for dilution into Neilands' media. According to reported information, nystatin should be effective at 1.5 to 6.5 µg/ml; therefore, 0, 0.5, 1, 5, 10 and 50 µg/ml were used as the final concentrations. Hygromycin gold stock was in solution at 100 mg/ml, and 0, 25, 50, 100, 150 and 200 µg/ml were used as the final concentrations in Neilands' medium. Plates were incubated for 3 days at 37° C. with shaking.
To test for siderophores, 20 μL of a solution of 2 mM FeCl3 in 10 mM HCl was added to each well in the receiver plates and the A440 was recorded on a plate reader. […] An increase in A440 indicates a more intense orange-red colour that develops in the presence of ferrated siderophores. […] Because 3-day incubation produces conidia, shorter incubation periods may be preferable.
Three identical plates were set up: one filter plate and two sterile clear 96-well plates. The clear plates were used to score growth, and the filter plate was used to detect siderophores. Columns 1-6 contained Neilands' medium without citrate and amphotericin 0-2 at g/ml. Columns 7-12 contained Neilands' medium with citrate and amphotericin at […]. The rows were set up with A. fumigatus as described above, but two sets of each were set up to be in the two plates. The spores from the previous experiment were stored at −20° C. in PBS, in siliconized tubes, at 2×10^8 conidia/ml, to facilitate these experiments. Plates were incubated for 48 hours at 37° C. without shaking.
The filter plate was centrifuged at 1000×g for 10 minutes and the liquids caught in a clear non-sterile plate, to which FeCl3 was added. The plate was allowed to sit and develop orange colour, and was then read at 440 nm. The clear plates (one without Fe and one with Fe added to growth medium from the beginning) were read at 600 nm (A600). In the result, iron enhanced conidiation. Some wells of the filter plate were lightly conidiated and would not drain. These were hand pipetted.

[2] = 1 ml GA, 4 days 37° C., 5 μM FeCl3
[3] = 1 ml GA, 96 hours, FeCl3 5 μM or ferrated TAF 10 μM
[4] = 5 ml GA medium, 4 days 37° C., 5 μM FeCl3 or 10 μM TAF
[5] = 1 ml GA + 5 μM FeCl3 + 10% serum, 50 μM desferri-TAF or desferri-ferricrocin, 4 days
[6] = GA + FeCl3 + 10% human serum, desferrisiderophore 50 μM

[Cl][Fe]([Cl])[Cl] [FeCl3]
dry weight, ΔsidA (A. fumigatus ΔsidA; [2]): 7.1^1 mg | Growth (mg dry weight) mean ± S.D., ΔsidA (A. fumigatus ΔsidA; [3]): 1.4 ± 1.1 mg dry weight | dry weight, ΔsidA (A. fumigatus ΔsidA; [4]): 47.4^1 mg | Mean mycelial dry wt after 96 h (A. fumigatus ATCC 13073): 0.80^1 mg | Growth (mg dry weight) mean ± S.D., ΔsidAR (A. fumigatus ΔsidA^R; [3]): 7.5 ± 0.3 mg dry weight | dry weight, parental [1, 2]: 7.8^1 mg | Growth (mg dry weight) mean ± S.D., wild type [1, 3]: 6.5 ± 0.4 mg dry weight | dry weight, parental [1, 4]: 44.3^1 mg

CC(=O)NC1CCCN(O)C(=O)/C=C(/C)CCOC(=O)C(NC(C)=O)CCCN(O)C(=O)/C=C(/C)CCOC(=O)C(NC(C)=O)CCCN(O)C(=O)/C=C(/C)CCOC1=O (stereo not drawn) [TAF, N′,N″,N′″-triacetylfusarinine C]
Stability in human serum: stable in human serum | dry weight, ΔsidA (A. fumigatus ΔsidA; [5]): 7.2^1 mg | Growth (mg dry weight) mean ± S.D., ΔsidA (A. fumigatus ΔsidA; [3]): 4.4 ± 1.5 mg dry weight | dry weight, ΔsidA (A. fumigatus ΔsidA; [4]): 46^1 mg | Growth (mg dry weight) mean ± S.D., ΔsidAR (A. fumigatus ΔsidA^R; [3]): 6.0 ± 0.1 mg dry weight | Affinity of iron removal from holotransferrin (human holotransferrin): comparable to that of ferrichrome | dry weight, parental [1, 5]: 9.7^1 mg | Growth (mg dry weight) mean ± S.D., wild type [1, 3]: 6.2 ± 0.5 mg dry weight | dry weight, parental [1, 4]: 41^1 mg

CC(=O)NC1CCCN(O)C(=O)C=C(C)CCOC(=O)C(NC(C)=O)CCCN(O)C(=O)C=C(C)CCOC(=O)C(NC(C)=O)CCCN(O)C(=O)C=C(C)CCOC1=O (stereo not drawn) [desferri-TAF, Desferritriacetylfusarinine C]
Restoration of growth of ΔsidA in the presence of human serum (A. fumigatus ΔsidA): restored to wild-type levels | Growth (mg dry weight) mean ± S.D., ΔsidA (A. fumigatus ΔsidA; [6]): 12.3 ± 1.2 mg dry weight | Growth (mg dry weight) mean ± S.D., ΔsidAR (A. fumigatus ΔsidA^R; [6]): 11.3 ± 0.3 mg dry weight | Concentration able to remove some iron from holotransferrin (human holotransferrin): 500 µM | Concentration at which complete absence of holotransferrin was observed (human holotransferrin): 5 mM | Growth (mg dry weight) mean ± S.D., wild type [1, 6]: 10.1 ± 0.4 mg dry weight

CC(=O)N(O)CCCC1NC(=O)CNC(=O)CNC(=O)CNC(=O)C(CCCN(O)C(C)=O)NC(=O)C(CCCN(O)C(C)=O)NC1=O (stereo not drawn) [desferriferrichrome] (cyclo(GGG[ξOrn(N(OH)Ac)][ξOrn(N(OH)Ac)][ξOrn(N(OH)Ac)]))
Concentration at which complete absence of holotransferrin was observed (human holotransferrin): 5 mM

CC(=O)N(O)CCC[C@@H]1NC(=O)CNC(=O)[C@H](CO)NC(=O)CNC(=O)[C@H](CCCN(O)C(C)=O)NC(=O)[C@H](CCCN(O)C(C)=O)NC1=O [desferriferricrocin] (cyclo(GSG[Orn(N5-OH,N5-Ac)][Orn(N5-OH,N5-Ac)][Orn(N5-OH,N5-Ac)]))
Restoration of growth of ΔsidA in the presence of human serum (A. fumigatus ΔsidA): restored to wild-type levels | Growth (mg dry weight) mean ± S.D., ΔsidA (A. fumigatus ΔsidA; [6]): 11.1 ± 1.1 mg dry weight | Growth (mg dry weight) mean ± S.D., ΔsidAR (A. fumigatus ΔsidA^R; [6]): 11.0 ± 1.2 mg dry weight | Concentration able to remove some iron from holotransferrin (human holotransferrin): 500 µM | Concentration at which complete absence of holotransferrin was observed (human holotransferrin): 5 mM | Growth (mg dry weight) mean ± S.D., wild type [1, 6]: 9.7 ± 2.00 mg dry weight

CC(=O)N([O-])CCC[C@@H]1NC(=O)CNC(=O)[C@H](CO)NC(=O)CNC(=O)[C@H](CCCN([O-])C(C)=O)NC(=O)[C@H](CCCN([O-])C(C)=O)NC1=O.[Fe+3] [ferricrocin] (cyclo(GSG[Orn(N5-OH,N5-Ac)][Orn(N5-OH,N5-Ac)][Orn(N5-OH,N5-Ac)]))
dry weight, ΔsidA (A. fumigatus ΔsidA; [5]): 11.0^1 mg | Affinity of iron removal from holotransferrin (human holotransferrin): comparable to that of ferrichrome | dry weight, parental [1, 5]: 11.1^1 mg

C[C@@H]1[C@H](O)[C@@H](C)/C=C/C=C/CC/C=C/C=C/C=C/C=C/C(O[C@H]2O[C@H](C)[C@@H](O)[C@H](N)[C@@H]2O)CC2O[C@](O)(CC(O)C(O)CCC(O)CC(O)CC(O)CC(=O)O[C@H]1C)CC(O)C2C(=O)O (stereo partly drawn) [nystatin]
A440 (ferrated siderophores) (A. fumigatus 13073; nystatin 0.5 μg/ml, 100000 spores/ml): 0.341 and 0.414 and 0.359 | A440 (ferrated siderophores) (A. fumigatus 13073; nystatin 0.5 μg/ml, 1000000 spores/ml): 0.416 and 0.382 and 0.232 | A440 (ferrated siderophores) (A. fumigatus 13073; nystatin 1 μg/ml, 100000 spores/ml): 0.340 and 0.31 and 0.325 | A440 (ferrated siderophores) (A. fumigatus 13073; nystatin 1 μg/ml, 1000000 spores/ml): 0.412 and 0.492 and 0.329 | A440 (ferrated siderophores) (A. fumigatus 13073; nystatin 5 μg/ml, 100000 spores/ml): 0.048 and 0.042 and 0.044 | A440 (ferrated siderophores) (A. fumigatus 13073; nystatin 5 μg/ml, 1000000 spores/ml): 0.042 and 0.043 | A440 (ferrated siderophores) (A. fumigatus 13073; nystatin 10 μg/ml, 100000 spores/ml): 0.043 and 0.045 and 0.042 | A440 (ferrated siderophores) (A. fumigatus 13073; nystatin 10 μg/ml, 1000000 spores/ml): 0.042 and 0.043 and 0.050 | A440 (ferrated siderophores) (A. fumigatus 13073; nystatin 50 μg/ml, 100000 spores/ml): 0.048 and 0.052 and 0.051 | A440 (ferrated siderophores) (A. fumigatus 13073; nystatin 50 μg/ml, 1000000 spores/ml): 0.048 and 0.051

Apotransferrin: iron-free human transferrin
Mean mycelial dry wt after 96 h (A. fumigatus ATCC 13073): 0.02^1 mg

Holotransferrin: purified human iron-saturated transferrin
Mean mycelial dry wt after 96 h (A. fumigatus ATCC 13073): 1.30^1 mg
